Measurements taken from US9295258B2, “Synergistic pesticidal compositions and related methods” (DOW AGROSCIENCES LLC, priority 2013, dated 2016).

Key:
[1] = test system: Diamondback Moth, Plutella xylostella; experiment: Diamondback moth percent control on treated cabbage leaf discs (track sprayer), synergy by Colby's equation; type: in vivo
Excerpt: (§1) The method described in Colby S. R., “Calculating Synergistic and Antagonistic Responses of Herbicide Combinations,” Weeds, 1967, 15, 20-22 was used to determine an existence of synergic effect between the ecdysone receptor agonist compound and the pesticide in the formulated pesticidal composition. In this method, the percent insect control of the formulated pesticidal composition as observed in the study was compared to the “expected” percent control (E) as calculated by equation (1) (hereinafter “Colby's equation”) below: […]
(§2) X is the percentage of control with the first pesticide at a given rate (p),
(§3) Y is the percentage of control with the second pesticide at a given rate (q), and
E is the expected control by the first and second pesticide at a rate of p+q.
Bioassays were performed for different active compounds. […] The “Colby's Expected Action” was calculated using Colby's equation as discussed previously.
(§4) Bioassays were performed for different active compounds. […] The “Colby's Expected Action” was calculated using Colby's equation as discussed previously. […]
as §4

[2] = test system: Cotton Aphid, Aphis gossypii (Glover); experiment: Cotton aphid percent control on treated cotton plants (track sprayer), synergy by Colby's equation; type: in vivo; details: cotton plants at cotyledon stage
Excerpt: as §1, §2, §3
E is the expected control by the first and second pesticide at a rate of p+q. […]
Cotton plants at cotyledon stage were treated with different active compounds using track sprayer. […] The percent control of the pesticidal composition against cotton aphid, Aphis gossypii (Glover), was determined as the “Observed” action, and compared to those obtained by using about 0.002 weight % of compound II, and using about 0.005 weight % of methoxyfenozide alone. The “Colby's Expected Action” was calculated using Colby's equation as discussed previously.

For `CCN(C(=O)CCSCCC(F)(F)F)c1cn(-c2cccnc2)nc1Cl` [Compound I, N-(3-chloro-1-(pyridin-3-yl)-1H-pyrazol-4-yl)-N-ethyl-3-((3,3,3-trifluoropropyl)thio)propanamide], the “Average % Control Five Days After Treatment” value ([1]; Compound I alone (1:0), average of 0.0025, 0.000625 and 0.0001531 weight %) was 7.58%.

With `CCN(C(=O)CC[S+]([O-])CCC(F)(F)F)c1cn(-c2cccnc2)nc1Cl` (stereo not shown) [Compound II, N-(3-chloro-1-(pyridin-3-yl)-1H-pyrazol-4-yl)-N-ethyl-3-((3,3,3-trifluoropropyl)sulfinyl)propanamide] the “% Control Three Days After Treatment” value ([2]; Compound II alone, dose rate 0.002 weight %) was 28%.

In the case of `COc1cccc(C(=O)NN(C(=O)c2cc(C)cc(C)c2)C(C)(C)C)c1C` [Methoxyfenozide, 3-methoxy-2-methylbenzoic acid 2-(3,5-dimethylbenzoyl)-2-(1,1-dimethylethyl)hydrazide], the “% Control Three Days After Treatment” value ([2]; Methoxyfenozide alone, dose rate 0.005 weight %) is reported as 23% and the “Average % Control Five Days After Treatment” value ([1]; Methoxyfenozide alone (0:1), average of 0.02, 0.005, 0.00125 and 0.0003125 weight %) is reported as 15.9%.
